# Data taken from the supplement of paper PMC10307832.
# Compound: CC(C)C[C@@H](C(=O)N[C@H](C(=O)OC1CCCC1)c1ccccc1)[C@H](O)C(=O)NO [Tosedostat] + CC(=O)Nc1cccc(-n2c(=O)n(C3CC3)c(=O)c3c(Nc4ccc(I)cc4F)n(C)c(=O)c(C)c32)c1 [Trametinib] (partner 0.02 µM)
# Assay: relative viability (nuclei count vs DMSO), 5 days (fraction); higher = more cells survive
# Details: first compound 0.02 µM
# Procedure, shortened: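 The day after seeding in 1536-well plates, lung cancer cell lines were treated by pin tool with a single drug, or with a fixed anchor-drug dose together with five library-drug doses (not always all listed) in √10 steps. After 5 days, a combined fix-and-stain solution (final 0.05% Triton X-100, 1% formaldehyde, 1 ug/ml Hoechst) was added. Nuclei counted on 4× images gave relative viability as treated counts over vehicle counts, reported as the median of duplicate plates.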
row,Cell Line,relative viability
1,A-427,0.789
2,NCI-H650,1.04
3,RERF-LC-KJ,0.878
4,NCI-H1915,0.295
5,NCI-H661,0.688
6,NCI-H441,0.478
7,NCI-H1975,0.35
8,201T,0.673
9,NCI-H2023,0.607
10,HCC-827,0.545
11,NCI-H322M,0.548
12,NCI-H1437,0.552
13,PC-14,0.856
14,NCI-H1734,0.778
15,EPLC-272H,0.29
16,NCI-H3122,0.201
17,NCI-H2009,0.248
18,NCI-H520,0.731
19,NCI-H1651,0.777
20,NCI-H1993,0.501
21,HCC-15,0.394
22,EKVX,0.229
23,LC-2-ad,0.971
24,NCI-H1666,0.962

# Same assay, conditions: first compound 0.06325 µM
row,Cell Line,relative viability
1,HOP-62,0.442
2,HCC-44,1.11
3,LXF-289,0.651
4,BEN,1
5,HARA,0.636
6,HCC-78,0.722
7,NCI-H647,0.485
8,LCLC-97TM1,0.202
9,NCI-H2126,0.59
10,A-427,0.748
11,NCI-H650,1.03
12,RERF-LC-KJ,0.784
13,NCI-H1915,0.313
14,NCI-H661,0.596
15,NCI-H441,0.579
16,NCI-H1975,0.401
17,201T,0.743

row,Cell Line,relative viability
1,NCI-H2023,0.496
2,HCC-827,0.571
3,NCI-H322M,0.501
4,NCI-H1437,0.523
5,PC-14,0.758
6,NCI-H1734,0.666
7,EPLC-272H,0.296
8,NCI-H3122,0.258
9,NCI-H2009,0.325
10,NCI-H520,0.733
11,NCI-H1651,0.789
12,NCI-H1993,0.61
13,HCC-15,0.353
14,EKVX,0.338
15,LC-2-ad,0.893
16,NCI-H1666,0.856
17,NCI-H2085,0.436

# Same assay, conditions: first compound 0.2 µM
row,Cell Line,relative viability
1,HOP-62,0.404
2,HCC-44,1.09
3,LXF-289,0.661
4,BEN,1.09
5,HARA,0.91
6,HCC-78,0.664
7,NCI-H647,0.425
8,LCLC-97TM1,0.232
9,NCI-H2126,0.568
10,A-427,0.818
11,NCI-H650,0.852
12,RERF-LC-KJ,0.81
13,NCI-H1915,0.292
14,NCI-H661,0.579
15,NCI-H441,0.499
16,NCI-H1975,0.453
17,201T,0.732

row,Cell Line,relative viability
1,NCI-H2023,0.465
2,HCC-827,0.552
3,NCI-H322M,0.452
4,NCI-H1437,0.631
5,PC-14,0.781
6,NCI-H1734,0.664
7,EPLC-272H,0.305
8,NCI-H3122,0.193
9,NCI-H2009,0.321
10,NCI-H520,0.645
11,NCI-H1651,0.897
12,NCI-H1993,0.535
13,HCC-15,0.408
14,EKVX,0.433
15,LC-2-ad,0.885
16,NCI-H1666,0.929
17,NCI-H2085,0.677

# Same assay, conditions: first compound 0.6325 µM
row,Cell Line,relative viability
1,HOP-62,0.495
2,HCC-44,1.13
3,LXF-289,0.703
4,BEN,1.21
5,HARA,0.745
6,HCC-78,0.795
7,NCI-H647,0.622
8,LCLC-97TM1,0.177
9,NCI-H2126,0.584
10,A-427,0.719
11,NCI-H650,0.924
12,RERF-LC-KJ,0.782
13,NCI-H1915,0.3
14,NCI-H661,0.613
15,NCI-H441,0.562
16,NCI-H1975,0.359
17,201T,0.745

row,Cell Line,relative viability
1,NCI-H2023,0.45
2,HCC-827,0.505
3,NCI-H322M,0.456
4,NCI-H1437,0.469
5,PC-14,0.67
6,NCI-H1734,0.502
7,EPLC-272H,0.324
8,NCI-H3122,0.25
9,NCI-H2009,0.293
10,NCI-H520,0.699
11,NCI-H1651,0.869
12,NCI-H1993,0.498
13,HCC-15,0.363
14,EKVX,0.373
15,LC-2-ad,0.917
16,NCI-H1666,0.91
17,NCI-H2085,0.403

# Same assay, conditions: first compound 2 µM
row,Cell Line,relative viability
1,HOP-62,0.451
2,HCC-44,1.17
3,LXF-289,0.687
4,BEN,1.38
5,HARA,0.631
6,HCC-78,0.659
7,NCI-H647,0.515
8,LCLC-97TM1,0.161
9,NCI-H2126,0.481
10,A-427,0.701
11,NCI-H650,0.836
12,RERF-LC-KJ,0.686
13,NCI-H1915,0.283
14,NCI-H661,0.637
15,NCI-H441,0.461
16,NCI-H1975,0.344
17,201T,0.781

row,Cell Line,relative viability
1,NCI-H2023,0.502
2,HCC-827,0.518
3,NCI-H322M,0.467
4,NCI-H1437,0.547
5,PC-14,0.531
6,NCI-H1734,0.572
7,EPLC-272H,0.25
8,NCI-H3122,0.183
9,NCI-H2009,0.276
10,NCI-H520,0.67
11,NCI-H1651,0.742
12,NCI-H1993,0.504
13,HCC-15,0.305
14,EKVX,0.292
15,LC-2-ad,0.967
16,NCI-H1666,0.851
17,NCI-H2085,0.637
